Reference: patent US10538555B2, “Macrocyclic inhibitors of the PD-1/PD-L1 and CD80(B7-1)/PD-L1 protein/protein interactions” (BRISTOL-MYERS SQUIBB COMPANY, priority 2014, dated 2020)
Where a SMILES comes first, the peptide text is derived from it. Bridges are numbered along the chain shown (N, C = ends). [ ]: non-standard residue; d: D form. Trp(1-CH2COOH) = N[C@@H](Cc1cn(CC(=O)O)c2ccccc12)C(=O)O; Hyp = O=C(O)[C@@H]1C[C@@H](O)CN1; NMeNle = CCCC[C@H](NC)C(=O)O; NMeA = CN[C@@H](C)C(=O)O; Dab = NCC[C@H](N)C(=O)O; Dap = NC[C@H](N)C(=O)O

Target: T1, Human PD-L1/PD-1 (Homo sapiens, UniProt Q9NZQ7)
T1 construct: TVMV protease cleavage site (C); made in house; host or cells: HEK293T cells
Test: HTRF Human PD-L1/PD-1 binding assay (PD-1-Ig/PD-L1-His)
Details: PD-L1-His 10 nM, PD-1-Ig 20 nM; class symbol; read-out: HTRF Human PD-L1/PD-1 Binding Assay IC50 Range
In short: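 Step 1: compound with PD-L1-His (10 nM final), 15 min. Step 2: PD-1-Ig (20 nM final), 15 min. Step 3: Eu-cryptate anti-Ig (1 nM) plus APC anti-His (20 nM), 30 min equilibration. Signal taken as 665 nm/620 nm ratio.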

T1 sequence (Q9NZQ7 with tags, fused parts or gaps): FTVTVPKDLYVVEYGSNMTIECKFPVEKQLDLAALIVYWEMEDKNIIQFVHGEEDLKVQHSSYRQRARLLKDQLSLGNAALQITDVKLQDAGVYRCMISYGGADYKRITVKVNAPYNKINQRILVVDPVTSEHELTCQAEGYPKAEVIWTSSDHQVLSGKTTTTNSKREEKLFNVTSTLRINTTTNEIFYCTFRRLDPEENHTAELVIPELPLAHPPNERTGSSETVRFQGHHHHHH

Structure (SMILES): CCCC[C@H]1C(=O)N(C)[C@@H](CCCC)C(=O)N[C@@H](CCC(=O)O)C(=O)N[C@H](C(=O)NCC(N)=O)CSCC(=O)N[C@@H](Cc2ccc(O)cc2)C(=O)N(C)[C@@H](C)C(=O)N[C@@H](CC(N)=O)C(=O)N2CCC[C@H]2C(=O)N[C@@H](CN)C(=O)N[C@@H](CC(C)C)C(=O)N2C[C@H](O)C[C@H]2C(=O)N[C@@H](Cc2c[nH]c3ccccc23)C(=O)N[C@@H](CCC(=O)O)C(=O)N[C@@H](Cc2c[nH]c3ccccc23)C(=O)N1C [Example 5232] ({CH2CO}-Y[NMeA]NP[Dap]L[Hyp]WEW[NMeNle][NMeNle]ECG-NH2; thioether N-14)
- IC50: 1 to 9.9 nM

Structure (SMILES): CCCC[C@H]1C(=O)N(C)[C@@H](CCCC)C(=O)N[C@@H](CCC(=O)O)C(=O)N[C@H](C(=O)NCC(N)=O)CSCC(=O)N[C@@H](Cc2ccc(O)cc2)C(=O)N(C)[C@@H](C)C(=O)N[C@@H](CC(=O)O)C(=O)N2CCC[C@H]2C(=O)N[C@@H](CO)C(=O)N[C@@H](CCC(=O)O)C(=O)N2C[C@H](O)C[C@H]2C(=O)N[C@@H](Cc2c[nH]c3ccccc23)C(=O)N[C@@H](CO)C(=O)N[C@@H](Cc2c[nH]c3ccccc23)C(=O)N1C [Example 5233] ({CH2CO}-Y[NMeA]DPSE[Hyp]WSW[NMeNle][NMeNle]ECG-NH2; thioether N-14)
- IC50: 1 to 9.9 nM

Structure (SMILES): CCCC[C@H]1C(=O)N(C)[C@@H](CCCC)C(=O)N[C@@H](CC(C)C)C(=O)N[C@H](C(=O)NCC(N)=O)CSCC(=O)N[C@@H](Cc2ccc(O)cc2)C(=O)N(C)[C@@H](C)C(=O)N[C@@H](CC(N)=O)C(=O)N(C)[C@@H](C)C(=O)N[C@@H](Cc2cnc[nH]2)C(=O)N[C@@H](CCC(N)=O)C(=O)N2C[C@H](O)C[C@H]2C(=O)N[C@@H](Cc2c[nH]c3ccccc23)C(=O)N[C@@H](CO)C(=O)N[C@@H](Cc2c[nH]c3ccccc23)C(=O)N1C [Example 5234] ({CH2CO}-Y[NMeA]N[NMeA]HQ[Hyp]WSW[NMeNle][NMeNle]LCG-NH2; thioether N-14)
- IC50: 1 to 9.9 nM

Structure (SMILES): CCCC[C@H]1C(=O)N(C)[C@@H](CCCC)C(=O)N[C@@H](CCC(=O)O)C(=O)N[C@H](C(=O)NCC(N)=O)CSCC(=O)N[C@@H](Cc2ccc(O)cc2)C(=O)N(C)[C@@H](C)C(=O)N[C@@H](CC(=O)O)C(=O)N2CCC[C@H]2C(=O)N[C@@H](Cc2cnc[nH]2)C(=O)N[C@@H](CCC(=O)O)C(=O)N2C[C@H](O)C[C@H]2C(=O)N[C@@H](Cc2c[nH]c3ccccc23)C(=O)N[C@@H](CCC(=O)O)C(=O)N[C@@H](Cc2c[nH]c3ccccc23)C(=O)N1C [Example 5236] ({CH2CO}-Y[NMeA]DPHE[Hyp]WEW[NMeNle][NMeNle]ECG-NH2; thioether N-14)
- IC50: 1 to 9.9 nM

Structure (SMILES): CCCC[C@H]1C(=O)N(C)[C@@H](CCCC)C(=O)N[C@@H](CCC(=O)O)C(=O)N[C@H](C(=O)NCC(N)=O)CSCC(=O)N[C@@H](Cc2ccc(O)cc2)C(=O)N(C)[C@@H](C)C(=O)N[C@@H](CC(N)=O)C(=O)N2CCC[C@H]2C(=O)N[C@@H](CN)C(=O)N[C@@H](CCC(N)=O)C(=O)N2C[C@H](O)C[C@H]2C(=O)N[C@@H](Cc2c[nH]c3ccccc23)C(=O)N[C@@H](CCN)C(=O)N[C@@H](Cc2c[nH]c3ccccc23)C(=O)N1C [Example 5237] ({CH2CO}-Y[NMeA]NP[Dap]Q[Hyp]W[Dab]W[NMeNle][NMeNle]ECG-NH2; thioether N-14)
- IC50: 1 to 9.9 nM

Structure (SMILES): CCCC[C@H]1C(=O)N(C)[C@@H](CCCC)C(=O)N[C@@H](CN)C(=O)N[C@H](C(=O)NCC(N)=O)CSCC(=O)N[C@@H](Cc2ccc(O)cc2)C(=O)N(C)[C@@H](C)C(=O)N[C@@H](CC(=O)O)C(=O)N2CCC[C@H]2C(=O)N[C@@H](Cc2cnc[nH]2)C(=O)N[C@@H](CCC(N)=O)C(=O)N2C[C@H](O)C[C@H]2C(=O)N[C@@H](Cc2c[nH]c3ccccc23)C(=O)N[C@@H](CCN)C(=O)N[C@@H](Cc2cn(CC(=O)O)c3ccccc23)C(=O)N1C [Example 5238] ({CH2CO}-Y[NMeA]DPHQ[Hyp]W[Dab][Trp(1-CH2COOH)][NMeNle][NMeNle][Dap]CG-NH2; thioether N-14)
- IC50: 1 to 9.9 nM
